Active and inactive are the calls of the source.
Key:
[1] = system: Vero; assay: cells; format: functional; conditions: Chlorocebus sabaeus
[2] = system: CHO; assay: CHO cell viability loss, potency – luminescence, cytotoxicity control for TLR9-MyD88 binding inhibitor project, dose response (AID 588339); format: functional, cell-based, hamster; conditions: Cricetulus griseus;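 note: CHO cells stably coexpressing TLR9 and MyD88 fusions from primary screen; compound exposure lasted 48 hours before viability readout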
[3] = target: T1, Short transient receptor potential channel 4 (Mus musculus, UniProt Q9QUQ5); assay: block of DAMGO-driven TRPC4 calcium entry – cell-based, HEK293 TRPC4/mu-opioid, Fluo-4 calcium, dose response (AID 434942); format: functional;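 note: potency of inhibitors blocking the TRPC4 calcium response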
T1 sequence (Q9QUQ5 whole entry): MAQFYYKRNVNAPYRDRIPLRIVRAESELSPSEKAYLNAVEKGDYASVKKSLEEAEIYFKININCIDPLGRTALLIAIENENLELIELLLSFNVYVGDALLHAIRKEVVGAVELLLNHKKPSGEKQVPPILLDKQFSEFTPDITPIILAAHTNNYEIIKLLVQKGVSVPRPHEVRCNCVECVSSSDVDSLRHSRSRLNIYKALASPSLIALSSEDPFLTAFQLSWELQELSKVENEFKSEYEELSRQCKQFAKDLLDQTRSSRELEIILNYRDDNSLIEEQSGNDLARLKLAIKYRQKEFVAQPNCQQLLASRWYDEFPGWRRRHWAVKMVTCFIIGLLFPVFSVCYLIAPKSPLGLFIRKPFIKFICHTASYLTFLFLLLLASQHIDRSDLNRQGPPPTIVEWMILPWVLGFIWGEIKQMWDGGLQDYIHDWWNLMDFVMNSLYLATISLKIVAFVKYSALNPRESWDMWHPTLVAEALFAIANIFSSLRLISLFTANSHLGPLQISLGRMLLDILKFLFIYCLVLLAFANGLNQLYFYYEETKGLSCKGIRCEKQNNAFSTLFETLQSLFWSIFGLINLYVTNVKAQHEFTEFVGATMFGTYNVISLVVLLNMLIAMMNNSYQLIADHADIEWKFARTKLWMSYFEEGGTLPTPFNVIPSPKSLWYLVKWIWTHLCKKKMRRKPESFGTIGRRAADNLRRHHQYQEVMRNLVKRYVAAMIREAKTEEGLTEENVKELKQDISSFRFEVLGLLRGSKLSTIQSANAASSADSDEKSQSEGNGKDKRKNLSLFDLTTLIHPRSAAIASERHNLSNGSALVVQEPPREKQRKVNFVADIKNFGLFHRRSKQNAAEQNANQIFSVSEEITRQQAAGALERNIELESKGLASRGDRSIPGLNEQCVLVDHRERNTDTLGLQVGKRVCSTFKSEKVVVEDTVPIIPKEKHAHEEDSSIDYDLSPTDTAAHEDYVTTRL

[4] = cells; format: functional
[5] = target: T2, Fatty acid synthase (Homo sapiens, UniProt P49327); assay: inhibition of human FAS-TE enzyme activity – biochemical, endpoint fluorescence intensity, uHTS hits, dose response (AID 624327); format: functional;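 note: fluorescence from hydrolysis of an O-methyl fluorescein acyl ester substrate by the enzyme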
T2 sequence (P49327 whole entry): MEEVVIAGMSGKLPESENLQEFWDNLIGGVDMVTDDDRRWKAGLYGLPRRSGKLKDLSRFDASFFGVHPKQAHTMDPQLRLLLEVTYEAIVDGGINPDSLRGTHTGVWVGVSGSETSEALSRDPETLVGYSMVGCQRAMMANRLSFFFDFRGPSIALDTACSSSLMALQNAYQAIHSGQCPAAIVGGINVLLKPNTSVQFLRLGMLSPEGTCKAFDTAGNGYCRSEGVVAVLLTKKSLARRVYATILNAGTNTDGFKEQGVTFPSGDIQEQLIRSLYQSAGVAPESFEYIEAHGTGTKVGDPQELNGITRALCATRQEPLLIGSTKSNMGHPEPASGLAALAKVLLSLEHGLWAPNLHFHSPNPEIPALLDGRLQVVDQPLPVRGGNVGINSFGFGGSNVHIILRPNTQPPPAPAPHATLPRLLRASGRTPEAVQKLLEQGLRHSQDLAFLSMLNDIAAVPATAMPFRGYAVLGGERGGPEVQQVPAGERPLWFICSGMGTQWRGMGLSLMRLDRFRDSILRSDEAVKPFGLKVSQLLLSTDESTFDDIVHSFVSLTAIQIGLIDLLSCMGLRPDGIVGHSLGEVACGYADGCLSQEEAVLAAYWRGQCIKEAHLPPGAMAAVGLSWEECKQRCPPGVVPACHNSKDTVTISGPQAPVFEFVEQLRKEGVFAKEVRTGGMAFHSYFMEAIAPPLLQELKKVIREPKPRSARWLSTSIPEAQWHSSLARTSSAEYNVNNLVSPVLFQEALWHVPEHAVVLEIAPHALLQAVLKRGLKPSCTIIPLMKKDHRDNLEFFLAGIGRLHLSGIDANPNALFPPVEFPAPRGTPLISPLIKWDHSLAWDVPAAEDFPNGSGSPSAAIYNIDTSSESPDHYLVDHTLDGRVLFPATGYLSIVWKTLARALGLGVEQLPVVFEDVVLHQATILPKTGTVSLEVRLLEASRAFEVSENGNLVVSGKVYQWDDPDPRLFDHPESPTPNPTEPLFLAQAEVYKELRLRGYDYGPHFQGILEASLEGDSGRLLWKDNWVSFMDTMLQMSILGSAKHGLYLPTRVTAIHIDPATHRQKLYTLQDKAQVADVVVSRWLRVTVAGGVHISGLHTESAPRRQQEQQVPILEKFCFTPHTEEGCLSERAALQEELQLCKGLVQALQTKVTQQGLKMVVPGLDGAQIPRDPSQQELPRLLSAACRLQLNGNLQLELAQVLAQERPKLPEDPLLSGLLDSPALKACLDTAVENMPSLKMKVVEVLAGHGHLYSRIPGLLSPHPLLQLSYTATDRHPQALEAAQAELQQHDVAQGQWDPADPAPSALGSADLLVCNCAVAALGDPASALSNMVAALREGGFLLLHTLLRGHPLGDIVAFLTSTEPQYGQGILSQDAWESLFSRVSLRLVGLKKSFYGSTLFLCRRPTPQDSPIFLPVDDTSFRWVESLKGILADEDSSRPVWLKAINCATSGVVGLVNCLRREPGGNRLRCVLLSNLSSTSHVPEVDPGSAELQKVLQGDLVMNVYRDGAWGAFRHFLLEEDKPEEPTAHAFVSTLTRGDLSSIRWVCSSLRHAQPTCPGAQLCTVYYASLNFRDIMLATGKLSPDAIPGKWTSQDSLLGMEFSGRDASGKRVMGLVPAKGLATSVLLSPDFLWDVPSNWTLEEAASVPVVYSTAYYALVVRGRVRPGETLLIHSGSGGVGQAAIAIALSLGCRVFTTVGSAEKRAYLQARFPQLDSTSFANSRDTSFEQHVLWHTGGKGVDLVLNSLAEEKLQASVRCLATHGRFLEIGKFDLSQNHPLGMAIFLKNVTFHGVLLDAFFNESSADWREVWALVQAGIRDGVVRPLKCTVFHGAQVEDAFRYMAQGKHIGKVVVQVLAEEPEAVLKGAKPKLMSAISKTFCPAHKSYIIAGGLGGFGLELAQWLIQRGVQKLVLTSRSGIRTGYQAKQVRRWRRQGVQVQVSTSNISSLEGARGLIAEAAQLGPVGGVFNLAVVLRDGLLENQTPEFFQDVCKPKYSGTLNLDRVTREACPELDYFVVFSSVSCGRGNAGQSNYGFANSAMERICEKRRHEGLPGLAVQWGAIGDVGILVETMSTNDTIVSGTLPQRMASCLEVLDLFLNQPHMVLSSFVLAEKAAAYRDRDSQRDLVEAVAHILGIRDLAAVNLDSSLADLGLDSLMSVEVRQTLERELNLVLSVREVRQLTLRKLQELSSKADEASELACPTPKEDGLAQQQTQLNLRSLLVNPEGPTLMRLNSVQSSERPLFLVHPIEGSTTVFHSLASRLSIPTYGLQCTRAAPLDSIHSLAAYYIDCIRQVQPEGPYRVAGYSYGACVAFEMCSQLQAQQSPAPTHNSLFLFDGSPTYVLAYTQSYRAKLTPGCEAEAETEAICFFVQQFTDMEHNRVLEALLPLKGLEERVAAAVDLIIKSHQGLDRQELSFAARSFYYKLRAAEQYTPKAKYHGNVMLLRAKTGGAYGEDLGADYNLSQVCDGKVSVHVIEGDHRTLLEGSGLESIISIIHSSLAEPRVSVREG

[6] = target: T2, Fatty acid synthase; assay: inhibition of human FAS-TE enzyme activity – biochemical, kinetic fluorescence intensity, dose response (AID 624326); format: functional;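 note: rate of fluorescence rise from hydrolysis of a fluorogenic O-methyl fluorescein ester substrate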
[7] = target: T3, Carboxy-terminal domain RNA polymerase II polypeptide A small phosphatase 1 (Homo sapiens, UniProt Q9GZU7); assay: CTDSP1 inhibitors, concentration-response, biochemical, absorbance readout, ultra-high-throughput screen actives (AID 540297); format: functional
T3 sequence (Q9GZU7 whole entry): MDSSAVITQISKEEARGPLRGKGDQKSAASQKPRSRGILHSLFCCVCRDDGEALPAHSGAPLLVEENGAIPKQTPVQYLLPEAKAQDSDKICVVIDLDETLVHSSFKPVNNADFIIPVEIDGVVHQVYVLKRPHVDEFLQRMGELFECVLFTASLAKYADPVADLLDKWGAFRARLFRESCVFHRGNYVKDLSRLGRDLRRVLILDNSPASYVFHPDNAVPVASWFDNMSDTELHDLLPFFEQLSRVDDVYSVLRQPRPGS

[8] = target: T4, Ubiquitin-conjugating enzyme E2 N (Homo sapiens, UniProt P61088); format: functional;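 note: Dose-response confirmation in a TR-FRET assay detecting UBC13-driven polyubiquitin chain formation, inhibition measured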
T4 sequence (P61088 whole entry): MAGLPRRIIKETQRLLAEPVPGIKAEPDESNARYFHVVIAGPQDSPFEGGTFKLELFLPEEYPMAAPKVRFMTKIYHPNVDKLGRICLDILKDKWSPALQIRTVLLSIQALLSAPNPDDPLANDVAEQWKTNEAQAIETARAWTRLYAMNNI

[9] = target: T5, High affinity choline transporter 1 (Homo sapiens, UniProt Q9GZV3); assay: human choline transporter blockers, potency – cell-based, 5-point CRC, membrane potential dye, dose response (AID 504840); format: functional
T5 sequence (Q9GZV3 whole entry): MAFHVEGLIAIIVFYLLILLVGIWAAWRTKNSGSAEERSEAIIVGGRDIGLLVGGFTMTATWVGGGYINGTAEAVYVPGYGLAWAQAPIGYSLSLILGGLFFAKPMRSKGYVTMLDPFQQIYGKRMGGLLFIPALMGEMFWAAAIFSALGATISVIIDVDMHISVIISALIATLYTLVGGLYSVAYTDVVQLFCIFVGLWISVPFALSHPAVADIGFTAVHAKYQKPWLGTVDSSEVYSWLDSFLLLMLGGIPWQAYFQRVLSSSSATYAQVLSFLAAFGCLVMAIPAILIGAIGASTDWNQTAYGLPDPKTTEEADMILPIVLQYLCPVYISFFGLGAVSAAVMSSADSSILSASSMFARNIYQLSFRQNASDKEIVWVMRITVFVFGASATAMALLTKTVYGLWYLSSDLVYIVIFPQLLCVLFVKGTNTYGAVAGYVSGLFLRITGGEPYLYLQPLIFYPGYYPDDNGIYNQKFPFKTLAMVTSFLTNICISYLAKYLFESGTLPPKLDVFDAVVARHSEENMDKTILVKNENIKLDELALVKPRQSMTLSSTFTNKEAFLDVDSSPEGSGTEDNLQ

[10] = system: HEK293; assay: EBV LMP1 TES2 canonical NF-kB signalling blockers – cell-based, HEK293, luciferase, cherry-pick, dose response (AID 588343); format: functional; conditions: Homo sapiens
[11] = blockers of HIV-1 envelope-mediated cell-cell fusion – cherry-pick, dose response (AID 652057); format: functional, cell-based
[12] = blockers of HIV-1 ZM109 envelope-driven cell-cell fusion – HeLa effector, CEM target cells, luciferase, cherry-pick, dose response (AID 652058); format: functional, cell-based;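 note: luciferase signal from HIV-1 Env mediated cell-cell fusion of effector and target cells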
[13] = off-target signal loss in HeLa-CEM21 co-culture – HeLa F-luc CTL cells, cherry-picked, counter-screen for HIV-1 Env fusion inhibitor project, dose response (AID 652040); format: functional, cell-based;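 note: potency for signal decrease marking cytotoxic or nonspecific inhibition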
[14] = HIV-1 AD8 envelope cell-cell fusion blockers – cherry-pick, dose response (AID 652062); format: functional, cell-based;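 note: luciferase signal from cell-cell fusion driven by HIV-1 clade B AD8 Env; potency is for inhibitors of fusion seen as a drop in luminescence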
[15] = target: Paired box protein Pax-8 (Homo sapiens, UniProt Q06710); assay: PAX8 transcriptional activity inhibition in RMG-I – RMG-I cells, luciferase, cherry-pick, dose response (AID 687027); format: functional, cell-based;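 note: luciferase reporter driven by Pax8 target thyroperoxidase promoter measured by SteadyGlo luminescence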
Chain of Paired box protein Pax-8 (Q06710 whole entry): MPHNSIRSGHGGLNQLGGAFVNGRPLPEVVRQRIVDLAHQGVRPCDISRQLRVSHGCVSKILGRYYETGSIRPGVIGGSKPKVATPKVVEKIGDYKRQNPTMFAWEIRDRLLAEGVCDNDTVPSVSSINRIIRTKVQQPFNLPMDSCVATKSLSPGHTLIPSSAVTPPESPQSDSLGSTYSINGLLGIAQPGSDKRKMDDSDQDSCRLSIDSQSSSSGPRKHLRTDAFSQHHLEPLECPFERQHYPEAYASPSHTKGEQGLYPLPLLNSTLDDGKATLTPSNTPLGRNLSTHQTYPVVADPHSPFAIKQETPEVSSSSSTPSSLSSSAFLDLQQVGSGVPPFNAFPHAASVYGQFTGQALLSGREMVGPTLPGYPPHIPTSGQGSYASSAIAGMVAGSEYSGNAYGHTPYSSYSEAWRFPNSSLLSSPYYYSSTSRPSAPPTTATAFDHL

[16] = target: T6, DNA repair and recombination protein RAD54-like (Homo sapiens, UniProt Q92698); assay: RAD54 Holliday junction migration blockers – biochemical, fluorescence, cherry-picked samples, dose series, confirmation (AID 651657); format: functional
T6 sequence (Q92698 whole entry): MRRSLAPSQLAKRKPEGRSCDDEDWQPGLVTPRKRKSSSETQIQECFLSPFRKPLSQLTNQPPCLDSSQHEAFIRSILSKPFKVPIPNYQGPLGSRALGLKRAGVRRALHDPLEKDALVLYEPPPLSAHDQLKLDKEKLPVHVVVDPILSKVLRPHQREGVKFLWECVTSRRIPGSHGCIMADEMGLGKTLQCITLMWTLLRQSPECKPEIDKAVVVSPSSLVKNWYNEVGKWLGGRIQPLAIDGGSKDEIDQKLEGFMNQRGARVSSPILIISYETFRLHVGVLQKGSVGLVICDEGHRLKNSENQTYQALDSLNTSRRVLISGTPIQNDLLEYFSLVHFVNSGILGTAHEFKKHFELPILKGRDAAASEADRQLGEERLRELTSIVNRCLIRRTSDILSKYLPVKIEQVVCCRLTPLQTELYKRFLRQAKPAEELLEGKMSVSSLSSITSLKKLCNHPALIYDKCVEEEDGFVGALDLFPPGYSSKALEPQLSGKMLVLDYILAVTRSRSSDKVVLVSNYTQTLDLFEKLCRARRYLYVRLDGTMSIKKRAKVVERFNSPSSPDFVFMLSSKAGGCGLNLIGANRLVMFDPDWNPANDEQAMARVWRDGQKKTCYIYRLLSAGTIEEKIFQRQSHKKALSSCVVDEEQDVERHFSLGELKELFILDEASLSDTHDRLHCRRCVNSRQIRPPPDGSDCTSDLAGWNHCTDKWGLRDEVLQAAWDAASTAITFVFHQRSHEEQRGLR

Question: Which CC50 [1] does the source give for `CC1CCN(CCCNC(=O)c2ccc3c(Cl)c4c(nc3c2)CCCC4)CC1` here?
Answer: The CC50 was > 25 µM (active).

Question: With `CS(=O)(=O)c1sc2nc(-c3ccccc3)cc(-c3ccccc3)c2c1N` as the compound, how does the IC50 [2] read?
Answer: Its IC50 is > 49.8 µM (inactive).

Question: Which results are given for `O=C(OCC(=O)N1CCc2ccccc2C1)c1cccc([N+](=O)[O-])c1`?
Answer: EC50 [3]: 2.37 µM (active); IC50 [4]: 23.1 µM (active); IC50 [5]: 9.14 µM (active); IC50 [6]: 10.9 µM (active)

Question: Which IC50 [7] does the source give for `CCN(CC)S(=O)(=O)c1ccc(C(=O)OCC(=O)NCc2ccco2)cc1` here?
Answer: Its IC50 is 11.1 µM (active).

Question: With `CCCC(C(=O)NC(C)(C)C)N(CC1CCCO1)C(=O)c1snc(C(N)=O)c1N` (stereo not drawn) as the compound, how does the IC50 [8] read?
Answer: The IC50 was > 20 µM (inactive).

Question: With `CC1=C(C(=O)OCCOc2ccccc2)C(c2ccsc2)NC(=O)N1C` (stereo not drawn) as the compound, how does the IC50 [9] read?
Answer: Its IC50 is 13.2 µM (active).

Question: For `Cc1cc2[nH]c3ccccc3c2c(C)n1`, which EC50 [3] is on record?
Answer: Its EC50 is 1.68 µM (active).

Question: Which IC50 [7] does the source give for `COCCN(C(=O)Cn1nnc2ccccc21)C(C(=O)NC1CCCCC1)c1ccc(OC)cc1OC` (stereo not drawn) here?
Answer: The IC50 was 14.9 µM (active).

Question: For `Cc1ccc(Sc2ccc(CO)cc2[N+](=O)[O-])cc1`, which EC50 [3] is on record?
Answer: The EC50 was 3.35 µM (active).

Question: With `CCNc1nc(NCC)n2c(SCC(=O)Nc3cccc(Cl)c3)nnc2n1` as the compound, how does the IC50 [7] read?
Answer: The IC50 was 16.2 µM (active).

Question: For `COc1ccc(S(=O)(=O)c2cnc(S)nc2O)cc1Cl`, which IC50 [7] is on record?
Answer: Its IC50 is 8.64 µM (active).

Question: For `CCOC(=O)N1CCN(C(=O)c2ccc3c(c2)N(Cc2ccc(F)cc2)CCS3)CC1`, which IC50 [8] is on record?
Answer: The IC50 was > 20 µM (inactive).

Question: For `CC(C)CC1C(=O)N(Cc2cn(CC3CCCCC3)nn2)CCS(=O)(=O)N1Cc1ccc(-c2ccc(F)nc2)cc1` (stereo not drawn), which AC50 [10] is on record?
Answer: Its AC50 is 32.8 µM (active).

Question: What about the CC50 [1] of the same compound?
Answer: The CC50 was 19.6 µM (active).

Question: For `CCN(C[C@H]1N[C@@](C)(C(=O)OC)[C@H]2C(=O)N(Cc3ccccc3)C(=O)[C@@H]12)C(=O)Nc1ccccc1`, which AC50 [11] is on record?
Answer: The AC50 was 2.92 µM (active).

Question: What about the AC50 [12] of the same compound?
Answer: The AC50 was 2.42 µM (active).

Question: And the AC50 [13]?
Answer: The AC50 was 3.81 µM (active).

Question: And the AC50 [14]?
Answer: The AC50 was 2.56 µM (active).

Question: For `N#Cc1ccc(NC(=O)COC(=O)C2CCC2)cc1`, which AC50 [15] is on record?
Answer: Its AC50 is 21.7 µM (active).

Question: What does the source list for `COc1cccc(S(=O)(=O)N(C)C[C@H]2Oc3cc(C4=CCCCC4)ccc3S(=O)(=O)N([C@H](C)CO)C[C@H]2C)c1`?
Answer: AC50 [11]: 0.409 µM (active); AC50 [14]: 2.06 µM (active)

Question: Which results are given for `CN1CCc2ccccc2Cc2[nH]c3ccccc3c2CC1`?
Answer: AC50 [11]: 25.6 µM (active); AC50 [12]: 8.06 µM (active); AC50 [13]: > 70 µM (inactive)

Question: For `CCOC(=O)c1cnc2c(C)cccc2c1NCCCN1CCOCC1`, which AC50 [16] is on record?
Answer: Its AC50 is 16.6 µM (active).

Reference: ChEMBL document CHEMBL1201862, “PubChem BioAssay data set” (2004)
